Results on 17 compounds are retold here after PubChem BioAssay AID248 (DTP/NCI, 2004).

Each structure is given as a SMILES string. Where “and” joins values, the source holds several entries; their conditions need not be identical. Equal values may be shown once. Toxic doses and inconclusive results are not listed.

For the experiment, the system named is L1210 leukemia ip in BDF1 mice, survival T/C. The experiment in a line: NCI In Vivo Anticancer Drug Screen. Data for tumor model L1210 Leukemia (intraperitoneal) in B6D2F1 (BDF1) mice. The following applies: endpoint: mean survival time, higher = longer survival. An outline of the steps: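 Transplantable tumor model; survival measured in treated vs vehicle control mice. Value = treated/control.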

Setting [1] is: dose: 200.0 mg/kg/injection, schedule: Q04DX003 (ip), vehicle: saline sonified.
Where [2] appears, read: dose: 400.0 mg/kg/injection, schedule: Q04DX003 (ip), vehicle: saline sonified.
The mark [3] stands for this setting: dose: 100.0 mg/kg/injection, schedule: Q04DX003 (ip), vehicle: saline with Tween-80.
The mark [4] stands for this setting: dose: 200.0 mg/kg/injection, schedule: Q04DX003 (ip), vehicle: saline with Tween-80.
[5] abbreviates: dose: 400.0 mg/kg/injection, schedule: Q04DX003 (ip), vehicle: saline with Tween-80.
Setting [6] is: dose: 100.0 mg/kg/injection, schedule: Q01DX001 (ip), vehicle: carboxymethylcellulose (CMC).
The mark [7] stands for this setting: dose: 200.0 mg/kg/injection, schedule: Q01DX001 (ip), vehicle: carboxymethylcellulose (CMC).
Setting [8] is: dose: 50.0 mg/kg/injection, schedule: Q01DX009 (ip), vehicle: Klucel (hydroxypropylcellulose) (HPC).

Turning to `COC1OC(CO)C(O)C(OS(C)(=O)=O)C1OS(C)(=O)=O` (configuration not stated), the T/C is, setting by setting: (dose: 100.0 mg/kg/injection, schedule: Q04DX002 (ip), vehicle: saline) 104 % of control; (dose: 200.0 mg/kg/injection, schedule: Q04DX002 (ip), vehicle: saline) 104 % of control; (dose: 400.0 mg/kg/injection, schedule: Q04DX002 (ip), vehicle: saline) 93 % of control.
Take `CC(C)=NNC(=O)CC(=O)NN=C(C)C`: the T/C runs as follows: (dose: 100.0 mg/kg/injection, schedule: Q04DX003 (ip), vehicle: saline sonified) 89 % of control; under setting [1], 87 % of control; under setting [2], 94 % of control.
As for `Cc1ccc(S(=O)(=O)N(N)C(=O)c2ccccc2)cc1`, the T/C (dose: 75.0 mg/kg/injection, schedule: Q01DX001 (ip), vehicle: saline) was 86 % of control.
With `CCP(c1ccccc1)c1ccccc1`, the T/C was 101 % of control (dose: 75.0 mg/kg/injection, schedule: Q01DX009 (ip), vehicle: saline sonified); 92 % of control (dose: 100.0 mg/kg/injection, schedule: Q01DX001 (ip), vehicle: saline sonified); 94 % of control (dose: 150.0 mg/kg/injection, schedule: Q01DX009 (ip), vehicle: saline sonified); 97 % of control (dose: 200.0 mg/kg/injection, schedule: Q01DX001 (ip), vehicle: saline sonified); 106 % of control (dose: 300.0 mg/kg/injection, schedule: Q01DX009 (ip), vehicle: saline sonified); 103 % of control (dose: 400.0 mg/kg/injection, schedule: Q01DX001 (ip), vehicle: saline sonified).
Regarding `O=C(Nc1ccc(S(=O)(=O)F)cc1)/C(=C/c1ccc([N+](=O)[O-])cc1)CCc1ccccc1`, the T/C is 105 % of control under setting [3], 97 % of control under setting [4] and 94 % of control under setting [5].
Take `Cc1ccc(-n2c(O)c(N=Nc3ccc(Cl)cc3)c(=O)n(-c3ccc(Cl)cc3)c2=S)cc1`: the T/C by setting is: (dose: 50.0 mg/kg/injection, schedule: Q01DX001 (ip), vehicle: Klucel (hydroxypropylcellulose) (HPC)) 100 % of control; (dose: 100.0 mg/kg/injection, schedule: Q01DX001 (ip), vehicle: Klucel (hydroxypropylcellulose) (HPC)) 105 % of control; (dose: 200.0 mg/kg/injection, schedule: Q01DX001 (ip), vehicle: Klucel (hydroxypropylcellulose) (HPC)) 95 % of control.
With `CCOC(=O)c1nc[nH]c1N=[N+]=[N-]`, the T/C by setting is: (dose: 100.0 mg/kg/injection, schedule: Q01DX001 (ip), vehicle: other) 106 % of control; (dose: 200.0 mg/kg/injection, schedule: Q01DX001 (ip), vehicle: other) 97 % of control; (dose: 400.0 mg/kg/injection, schedule: Q01DX001 (ip), vehicle: other) 95 % of control.
Regarding `CCOC(=O)c1cnc2ccc(OC)cc2c1Cl`, the T/C was 95 % of control (dose: 100.0 mg/kg/injection, schedule: Q01DX009 (ip), vehicle: saline with Tween-80); 107 % of control under setting [3]; 101 % of control (dose: 200.0 mg/kg/injection, schedule: Q01DX009 (ip), vehicle: saline with Tween-80); 104 % of control under setting [4]; 97 % of control (dose: 400.0 mg/kg/injection, schedule: Q01DX009 (ip), vehicle: saline with Tween-80); 96 % of control under setting [5].
With `O=C(CF)N(O)c1ccc(/C=C/c2ccccc2)cc1`, the T/C was 101 % of control under setting [6] and 113 % of control under setting [7].
Take `CCCCOC1CC2c3ccccc3C1c1cccc[n+]12` (configuration not stated): the T/C (dose: 12.5 mg/kg/injection, schedule: Q01DX009 (ip), vehicle: saline) was 111 % of control and 102 % of control; the T/C (dose: 12.5 mg/kg/injection, schedule: Q04DX003 (ip), vehicle: saline) is 94 % of control and 101 % of control and 100 % of control; the T/C (dose: 25.0 mg/kg/injection, schedule: Q01DX009 (ip), vehicle: saline) is 104 % of control and 98 % of control; the T/C (dose: 25.0 mg/kg/injection, schedule: Q04DX003 (ip), vehicle: saline) was 100 % of control and 101 % of control; the T/C (dose: 50.0 mg/kg/injection, schedule: Q04DX003 (ip), vehicle: saline) is 94 % of control and 88 % of control and 103 % of control.
In the case of `O=NN(CCCl)C(=O)Nc1cccc(O)c1`, the T/C is 123 % of control (dose: 4.5 mg/kg/injection, schedule: Q01DX009 (ip), vehicle: other); 176 % of control (dose: 7.0 mg/kg/injection, schedule: Q01DX009 (ip), vehicle: other); 155 % of control (dose: 11.0 mg/kg/injection, schedule: Q01DX009 (ip), vehicle: other); 170 % of control (dose: 17.0 mg/kg/injection, schedule: Q01DX009 (ip), vehicle: carboxymethylcellulose (CMC)); 154 % of control (dose: 17.0 mg/kg/injection, schedule: Q01DX009 (ip), vehicle: other); 210 % of control (dose: 26.0 mg/kg/injection, schedule: Q01DX009 (ip), vehicle: carboxymethylcellulose (CMC)). Besides, the T/C reads like this: (dose: 26.0 mg/kg/injection, schedule: Q01DX009 (ip), vehicle: other) 184 % of control; (dose: 30.0 mg/kg/injection, schedule: Q01DX001 (ip), vehicle: carboxymethylcellulose (CMC)) 154 % of control; (dose: 40.0 mg/kg/injection, schedule: Q01DX009 (ip), vehicle: carboxymethylcellulose (CMC)) 156 % of control; (dose: 40.0 mg/kg/injection, schedule: Q01DX009 (ip), vehicle: other) 170 % of control; (dose: 60.0 mg/kg/injection, schedule: Q01DX001 (ip), vehicle: carboxymethylcellulose (CMC)) 154 % of control and 168 % of control; (dose: 60.0 mg/kg/injection, schedule: Q01DX009 (ip), vehicle: other) 121 % of control. Further, for the setting “dose: 75.0 mg/kg/injection, schedule: Q01DX001 (ip), vehicle: carboxymethylcellulose (CMC)”, the T/C is 118 % of control.
As for `Cc1ccccc1CO`, the T/C was 97 % of control (dose: 50.0 mg/kg/injection, schedule: Q01DX001 (ip), vehicle: saline); 97 % of control (dose: 100.0 mg/kg/injection, schedule: Q01DX001 (ip), vehicle: saline); 97 % of control (dose: 200.0 mg/kg/injection, schedule: Q01DX001 (ip), vehicle: saline); 100 % of control (dose: 400.0 mg/kg/injection, schedule: Q01DX001 (ip), vehicle: saline).
As for `O=[N+]([O-])c1ccc(OCCOCCBr)c(Cl)c1`, the T/C under setting [6] is 98 % of control and 101 % of control; the T/C (dose: 100.0 mg/kg/injection, schedule: Q01DX009 (ip), vehicle: carboxymethylcellulose (CMC)) was 101 % of control and 110 % of control; the T/C (dose: 100.0 mg/kg/injection, schedule: Q04DX003 (ip), vehicle: carboxymethylcellulose (CMC)) was 100 % of control and 103 % of control; the T/C under setting [7] is 98 % of control and 90 % of control; the T/C (dose: 200.0 mg/kg/injection, schedule: Q01DX009 (ip), vehicle: carboxymethylcellulose (CMC)) is 95 % of control and 97 % of control; the T/C (dose: 200.0 mg/kg/injection, schedule: Q04DX003 (ip), vehicle: carboxymethylcellulose (CMC)) is 100 % of control and 106 % of control. Moreover, the T/C reads like this: (dose: 400.0 mg/kg/injection, schedule: Q01DX001 (ip), vehicle: carboxymethylcellulose (CMC)) 97 % of control and 101 % of control; (dose: 400.0 mg/kg/injection, schedule: Q01DX009 (ip), vehicle: carboxymethylcellulose (CMC)) 95 % of control and 101 % of control; (dose: 400.0 mg/kg/injection, schedule: Q04DX003 (ip), vehicle: carboxymethylcellulose (CMC)) 94 % of control.
For the compound `CCCCS(=O)CC(O)(c1ccccc1)c1ccccc1` (configuration not stated), the T/C is, setting by setting: (dose: 100.0 mg/kg/injection, schedule: Q03DX002 (ip), vehicle: saline with Tween-80) 102 % of control; (dose: 200.0 mg/kg/injection, schedule: Q03DX002 (ip), vehicle: saline with Tween-80) 105 % of control.
For the compound `O=C1CN(C(=O)CN2C(=O)c3ccccc3C2=O)C2(CCCCC2)O1`, the T/C runs as follows: (dose: 66.0 mg/kg/injection, schedule: Q04DX003 (ip), vehicle: saline sonified) 94 % of control; (dose: 150.0 mg/kg/injection, schedule: Q04DX003 (ip), vehicle: saline sonified) 101 % of control; under setting [1], 95 % of control; under setting [2], 97 % of control.
As to `CC(=O)Oc1cc2c(cc1N=NN(C)C)[C@H]1CC[C@]3(C)[C@@H](O)CC[C@H]3[C@@H]1CC2`, the T/C under setting [8] is 95 % of control.
Turning to `CNC(c1ccccc1)C(O)c1ccccc1` (configuration not stated), the T/C (dose: 25.0 mg/kg/injection, schedule: Q01DX009 (ip), vehicle: Klucel (hydroxypropylcellulose) (HPC)) is 106 % of control; the T/C under setting [8] was 95 % of control; the T/C (dose: 100.0 mg/kg/injection, schedule: Q01DX009 (ip), vehicle: Klucel (hydroxypropylcellulose) (HPC)) is 106 % of control; the T/C (dose: 100.0 mg/kg/injection, schedule: Q04DX003 (ip), vehicle: Klucel (hydroxypropylcellulose) (HPC)) was 97 % of control.
